Here are results for 73 molecules from PubChem BioAssay AID449764 (Southern Research Specialized Biocontainment Screening …, 2010).

pIC50: −log10 of the molar value.

The experiment has as its system Mycobacterium tuberculosis H37Rv growth inhibition, no glycerol. Put plainly: Confirmatory growth inhibition assay, Mycobacterium tuberculosis H37Rv, absence of glycerol (AID 449764).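 As to all read-outs here: growth read after 7 days of incubation.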 To be noted: for IC90: measured here: IC90 growth inhibition.

One may read the pIC50 as −log10 of the IC50, conventionally taken in molar units. As usually defined, the IC90 is the concentration at which the effect reaches the 90% level. A high value points to a need for much substance.

With `COc1ccc(/C=N/Nc2nncn2N)cc1Br`, the pIC50 is 4.98 and the IC90 stood at 13 µM.

Turning to `CCc1nnc(N/N=C/c2cc(C)c(C)cc2C)n1N`, the pIC50 is 5.23 and the IC90 was 6.55 µM.

For `CCOc1cc(C=O)cc(N=Nc2cccc([N+](=O)[O-])c2)c1O`, the pIC50 was 5.08 and the IC90 was 13.5 µM.

With `CN1C(=S)SC(N(O)C(=O)Nc2ccc(Cl)c(Cl)c2)C1(C)C` (centres undefined), the pIC50 is 4.63 and the IC90 was 26.6 µM.

With `COc1ccc(NC(=O)NC(C)C2CC3CCC2C3)cc1` (centres undefined), the pIC50 is 4.60 and the concentration for an effect of 90% (IC90) is 43.1 µM.

For `Cc1cc(NC(=O)c2cc(-c3ccncc3)nc3c(C)cccc23)no1`, the pIC50 was 4.03 and the IC90 is over 100 µM.

Consider `O=C(c1cc2cc(F)ccc2[nH]1)N(Cc1cccnc1)CC1CCCN(C2CCCCC2)C1` (centres undefined), for which the pIC50 was 4.37 and the IC90 was found to be 46.1 µM.

Take `O=C1Nc2ccccc2/C1=N\N=C\C1=C(N2CCOCC2)C(=C\c2ccccc2)/CC1`: the pIC50 is 4.44 and the IC90 was over 100 µM.

In the case of `CCOC(=O)c1ccc(-c2c(-c3ccc4c(c3)OCO4)noc2C)cc1F`, the pIC50 is 4.27 and the IC90 is over 100 µM.

On to `CN(C)C1(CNC(=O)Nc2ccc(Cl)c(Cl)c2)CCCCC1`, for which the pIC50 was 4.93 and the IC90 was found to be 13.1 µM.

As to `CCOC(=O)Cn1c(-c2ccccc2)ccc(C#N)c1=O`, the pIC50 was 4.98 and the IC90 was over 50 µM.

As to `C[n+]1c(-c2ccccc2)cc(CCCCc2cc(-c3ccccc3)[n+](C)c(-c3ccccc3)c2)cc1-c1ccccc1`, the pIC50 is 4.61 and the IC90 was found to be 28.3 µM.

In the case of `C=CCS/C(N)=N\N=C\c1c(O)ccc2ccccc12`, the pIC50 was 4.45 and the concentration for an effect of 90% (IC90) came to 55.4 µM.

On to `CN1CC=C(/C=C/c2ccc(-c3ccccc3)cc2)CC1`, for which the pIC50 was 4.61 and the IC90 came out at 28 µM.

With `COc1c(C)cc(C(=O)C2CCCN(Cc3ccccn3)C2)cc1C` (centres undefined), the pIC50 is 4.69 and the IC90 amounted to 29.7 µM.

Regarding `CCn1nc(NC(=O)c2ccncc2)c2cc3cc(C)ccc3nc21`, the pIC50 is 5.33 and the IC90 was over 100 µM.

As to `Cc1ccc(S(=O)(=O)/N=C(\CCl)N2CCOCC2)cc1`, the pIC50 was 4.73 and the IC90 was 27.5 µM.

`Cc1ccnc(NC(=O)c2cc3ccccc3o2)c1` registered an IC90 of over 50 µM.

For `CC(C)OC(=O)/C(C#N)=C/c1ccc(-c2ccc(SC(F)F)cc2)o1`, the pIC50 is 5.28 and the IC90 was 8.24 µM.

For the molecule `Cc1c2c(nc3ccccc13)CCC(C)C2` (centres undefined), the pIC50 is 4.66 and the IC90 was 37.1 µM.

As to `CN(C)S(=O)(=O)c1cccc(NC(=O)CSc2cccc3cccnc23)c1`, the pIC50 was 4.22 and the IC90 stood at 68.2 µM.

On to `C/C(=N/Nc1ccnc2cc(Cl)ccc12)c1ccc(O)cc1`, for which the pIC50 is 4.52 and the IC90 was determined as 36.2 µM.

Take `CCCCCCCCSc1nnc(CSc2nc3nc(C)cc(C)n3n2)o1`: the pIC50 was 5.58 and the IC90 was determined as 6.27 µM.

As to `Cc1ccc(-c2csc3ncnc(Nc4ccc(N5CCOCC5)cc4)c23)cc1`, the pIC50 was 4.62 and the IC90 was determined as 26.2 µM.

With `COc1cccc(/C=N/Nc2ncnc3scc(-c4ccccc4)c23)c1O`, the pIC50 was 5.25 and the IC90 was 6.44 µM.

As for `COc1ccc(NCc2nnc(SCC(=O)c3ccc(OC)cc3)o2)cc1`, the pIC50 was 4.68 and the IC90 came out at 22.9 µM.

`O=c1c(O)c(-c2cccs2)oc2ccccc12`: the pIC50 was 4.46 and the IC90 is over 100 µM.

On to `COc1ccc(-n2c(-c3ccc(Cl)cc3)c[n+]3c2CCc2ccccc2-3)cc1`, for which the pIC50 is 4.71 and the IC90 is 26.8 µM.

As for `O=C(CCl)NCc1cc(-c2ccc(Cl)cc2)no1`, the pIC50 is 6.46 and the IC90 is over 100 µM.

As for `CCOC(=O)C(/C=C(\C#N)C(=O)OCC)=C(/N)N1CCN(c2ccc(Cl)cc2)CC1`, the pIC50 was 4.92 and the IC90 was over 25 µM.

Consider `Cc1ccc(Cn2nnnc2CN2CCC(c3nc4ccc(Cl)cc4[nH]3)CC2)cc1`, for which the pIC50 is 4.51 and the IC90 worked out at 40.8 µM.

For `CCc1cc2c(=O)c(-c3cnn(-c4ccccc4)c3)c(C)oc2c(CN2CCCCC2)c1O`, the pIC50 is 4.49 and the IC90 turned out to be 52.4 µM.

Regarding `COC(=O)c1[nH]c2cc(OC)ccc2c1NC(=O)CN1CCN(c2cccc(C)c2)C(C)C1` (centres undefined), the pIC50 was 4.42 and the IC90 was found to be 50.9 µM.

Turning to `CCOc1cccc(C=Nc2cc(C)cc(C)c2O)c1O`, the pIC50 was 4.51 and the IC90 was 41.4 µM.

Take `Cc1c(CCC(=O)NCCCn2ccnc2)c(=O)oc2c(C)c3occ(C(C)(C)C)c3cc12`: the pIC50 was 4.55 and the IC90 was 37.6 µM.

For the molecule `COc1ccc(C2(c3ccc(OC)cc3)NC(=O)N(CC(=O)Nc3ccc(OC(F)F)cc3)C2=O)cc1`, the pIC50 was 4.60 and the IC90 is 53.9 µM.

`COC(=O)CSc1ncnc2c1sc1nc3c(cc12)COC(C)(C)C3`: the pIC50 was 5.24 and the IC90 amounted to 8.03 µM.

Take `Cc1ccc(C(=O)N/C(=C/c2ccc(-c3cc(C(F)(F)F)ccc3Cl)o2)C(=O)NCc2cccnc2)cc1`: the pIC50 is 4.13 and the IC90 is over 100 µM.

On to `Clc1ccc(-c2cc3ccccc3nc2N2CCCC2)cc1`, for which the pIC50 was 4.15 and the 90% effect concentration (IC90) was over 100 µM.

For the molecule `Cc1ccc(S(=O)(=O)NCc2ccc(C(=O)NCCCN3CCC(Cc4ccccc4)CC3)cc2)cc1`, the 90% effect concentration (IC90) is over 100 µM.

As for `Cc1ccc(Cn2ccsc2=NC(=O)CCl)cc1`, the pIC50 is 5.54 and the IC90 was 6.73 µM.

`ClCc1nc2ccccc2c2ccccc12`: the pIC50 is 4.69 and the IC90 amounted to 28.4 µM.

As for `N#CC(C(=O)NCc1ccco1)c1nc2ccccc2nc1N1CCOCC1` (centres undefined), the pIC50 was 4.37 and the IC90 came out at 47.2 µM.

`O=C(c1ccc(-c2cccc(C(F)(F)F)c2)o1)N1CCN(c2ccccc2O)CC1`: the pIC50 is 4.62 and the IC90 came to 27.5 µM.

Regarding `c1ccc(CN2CCN(c3nc(NCc4ccco4)c4ccccc4n3)CC2)cc1`, the pIC50 is 4.76 and the IC90 amounted to 22.6 µM.

Consider `C(=N\Nc1ccc2ccccc2n1)/c1ccc2c(c1)OCCO2`, for which the pIC50 was 5.30 and the IC90 was 7.13 µM.

For `CC/C(C)=N/NC(=S)NCc1ccco1`, the pIC50 is 4.09 and the IC90 came out at 91.7 µM.

For `CCOc1cc2c3c(c1)C1(C(=O)N3C(C)(C)CC2C)C(C#N)=C(N)N2C(=C1C#N)Nc1ccccc12` (centres undefined), the pIC50 is 4.42 and the IC90 is over 100 µM.

Consider `COc1ccc(/C=C2\CCC/C(=C\C=N\N(C)C)C2=O)cc1`, for which the pIC50 was 4.91 and the IC90 was 17.8 µM.

As to `OC(CN1CCCCC1)Cn1c2ccc(Cl)cc2c2cc(Cl)ccc21` (centres undefined), the pIC50 was 4.95 and the IC90 worked out at 12.5 µM.

Consider `C/C(=N\NC(=O)c1ccc(O)cc1)c1ccc2c(c1)Nc1ccccc1S2`, for which the pIC50 was 4.30 and the IC90 was 95.6 µM.

In the case of `O=c1cc(O)c2sc3nc(-c4cccnc4)cc(C(F)(F)F)c3c2[nH]1`, the pIC50 was 4.40 and the IC90 was over 100 µM.

With `O=c1c(Cl)c2oc3ccccc3nc-2c2ccccc12`, the pIC50 was 4.92 and the IC90 was 17.9 µM.

Turning to `CCN1/C(=C/C=C/c2oc3ccc(-c4ccccc4)cc3[n+]2CC)Oc2ccc(-c3ccccc3)cc21`, the pIC50 was 5.24 and the IC90 is 6.37 µM.

As to `CS(=O)(=O)c1ncc(Cl)c(C(=O)Nc2ccc(OC(F)F)cc2)n1`, the pIC50 was 4.87 and the IC90 was over 25 µM.

Take `Nc1ccccc1C#CC(=O)c1ccccc1`: the pIC50 was 5.39 and the IC90 worked out at 21.7 µM.

`Cc1nn2c(NCc3ccccn3)cc(C(C)C)nc2c1-c1ccccc1`: the pIC50 is 5.55 and the IC90 was 3.23 µM.

In the case of `NC(=O)c1cccn1-c1ncc(C(F)(F)F)cc1Cl`, the pIC50 was 4.84 and the IC90 worked out at 28.1 µM.

As for `Cc1ccc(-n2c(Cl)c(Cl)nc(Cl)c2=O)cc1`, the pIC50 was 4.79 and the IC90 amounted to 24.8 µM.

As to `Cc1nc(N2CCN(c3ccccn3)CC2)c2c(C)c(C(=O)N3CCN(c4ccc(F)cc4)CC3)sc2n1`, the pIC50 was 4.95 and the IC90 came out at 12.9 µM.

Consider `COc1ccc(N2CCN(C(=O)c3cc4c(C)nc5ccccc5c4o3)CC2)cc1`, for which the pIC50 is 4.09 and the IC90 was over 100 µM.

For the molecule `CCN(CC)Cc1nc2c(c(=O)[nH]1)C(CC)(CC)Cc1ccccc1-2`, the pIC50 was 4.90 and the IC90 is 21.1 µM.

For `CN1CCN(Cn2cc(/C=C/C(=O)c3ccccc3)c3ccccc32)CC1`, the pIC50 was 4.70 and the IC90 amounted to 39.3 µM.

Turning to `COc1ccc(-c2cc(-c3ccccc3)c(C#N)c(S(C)=O)n2)cc1` (centres undefined), the pIC50 was 4.04 and the IC90 was over 100 µM.

`COc1ccc(CN2CCN(C(c3ccc(F)cc3)c3ccc(F)cc3)CC2)c(OC)c1OC`: the pIC50 is 4.64 and the IC90 was determined as 40.5 µM.

Consider `Cc1csc(NC(=O)CCCC(=O)O)c1-c1nc2ccccc2s1`, for which the pIC50 is 4.04 and the IC90 was over 100 µM.

`Cc1oc(C(=O)Nc2ccc(O)cc2)cc1COc1ccccc1`: the pIC50 is 4.82 and the IC90 amounted to 35.1 µM.

As for `O=[N+]([O-])c1cc(-c2ncccn2)c([N+](=O)[O-])s1`, the pIC50 was 4.48 and the IC90 was 38.8 µM.

Regarding `CC1C/C(=C\c2cccnc2)C(=O)/C(=C/c2cccnc2)C1` (centres undefined), the pIC50 was 5.29 and the IC90 is 8.18 µM.

On to `Cc1ccn2c(-c3csc(NCc4ccccc4)n3)c(C)nc2c1`, for which the pIC50 is 4.34 and the IC90 amounted to 51.5 µM.

Regarding `CCOC(=O)CSc1snnc1-c1ccccc1`, the negative-log IC50 (pIC50) was 4.53 and the IC90 is over 100 µM.

On to `C(=N\Nc1ncnc2sc3c(c12)CCC3)/c1cccs1`, for which the pIC50 is 4.43 and the IC90 amounted to 54.2 µM.

In the case of `O=C(Nc1nc2ccccc2[nH]1)C12CC3CC(CC(C3)C1)C2`, the pIC50 was 4.87 and the IC90 was over 100 µM.
